# In patent US20090123581A1, “COLLAGEN CROSS-LINKING AGENTS ON DENTAL RESTORATIVE TREATMENT AND PREVENTIVE DENTISTRY” (THE BOARD OF TRUSTEES OF THE UNIVERSITY OF ILLINOIS, priority 2006, published 2009):
# Test: Tensile bond strength (TBS) of a total-etch adhesive with or without proteolytic challenge (Example 5)
# Set-up: species or system human
# Settings: for TBS (tensile bond strength): 5% glutaraldehyde 1 hour after etching, One-Step adhesive
# Experimental: To evaluate the effect of glutaraldehyde on the tensile bond strength (TBS) of a total-etch adhesive with or without proteolytic challenge, the experiment described below was performed.
# Ten human molars were polished until occlusal dentin was exposed and were divided according to the surface treatment: a control (no treatment) treatment (G1) and a 5% glutaraldehyde treatment (G2). Samples of G1 were etched with 37% phosphoric acid, rinsed, blotted dried, and One-Step (Bisco, Richmond, BC, Canada) was applied, followed by application of a composite resin used to build-up a “crown.” G2 was treated in the same manner, except that after etching, 5% glutaraldehyde was applied on the surface for 1 hour. After 24 hours, samples were sectioned into 1.0×1.0 mm beams. The beams were subdivided according to the proteolytic challenge: stored in water for 2 hours (no challenge) and stored in 1.5% NaOCl solution for 2 hours. Then samples were rinsed and tested in tensile at a crosshead speed of 1 mm/min using a universal testing machine. Data were statistically analyzed using ANOVA and Fisher's PLSD tests (p<0.05).
smiles,measurement,setting,value
"O=CCCCC=O [GD, glutaraldehyde]",TBS (tensile bond strength),No challenge (water 2 hours),71.11 (12.20)A MPa
same,TBS (tensile bond strength),stored in 1.5% NaOCl 2 hours,65.91 (18.06)AB MPa
same,change in TBS values after NaOCl storage,"5% glutaraldehyde, 1.5% NaOCl 2 hours",not significantly affected
